Reference: patent publication US20260240976A1, “T[…] VACCINES BASED ON VALIDATED TARGET EPITOPES” (Deutsches Krebsforschungszentrum Stiftung des öffentlichen …, priority 2023, published 2026)

Each substance was assayed on peptide-specific T cell cultures (assay: T cell phenotyping and intracellular cytokine staining (IFN-gamma, TNF-alpha)). Conditions: HLA restriction A01.
Format: cell-based, human
Set-up: key: +: cytokine: Immunogenicity of the peptide shown by intracellular cytokine staining (IFN-gamma, TNF-alpha); +*: *highlights data from published resources.; *highlights data from published resources
Protocol: To characterize and quantify the responsive cells upon peptide stimulation, the peptide-specific T cell cultures with positive ELISpot results were further analyzed with T cell phenotyping and intracellular cytokine staining (ICS) assessed by flow cytometry.
The cells of the respective continued short-term T cell culture as well as the DMSO-stimulated and an unresponsive T cell line were harvested into 2 mL reaction tubes and centrifuged at 400×g for 10 min. The supernatant was discarded and the pellet of the unresponsive T cell line was resuspended in 100 μL ELISpot medium and used as unstimulated and unstained control. The pellets of the responsive and the DMSO-stimulated T cell lines were resuspended in 200 μL ELISpot medium and split equally into two wells of a V-bottom 96-well plate. One well of the responsive T cell lines was re-stimulated with 10 μg/mL of its specific peptide while the other well was mock stimulated with 0.1% (v/v) DMSO. As positive control, one well of the DMSO-stimulated T cell line was activated by treatment with 20 ng/ml Phorbol 12-myristate 13-acetate and 1 μM lonomycin. Then, 1:10 diluted GolgiStop (containing monensin) and 1:15 diluted GolgiPlug (containing brefeldin A) were added to all wells to inhibit intracellular transport processes. Monensin inhibits the trans-Golgi transport, while brefeldin A inhibits transport between the ER and the Golgi (Chardin and McCormick, 1999; Mollenhauer et al., 1990). The stimulated cells were incubated for 5 h at standard culture conditions.
After incubation, the cells were resuspended, centrifuged at 400×g for 5 min and the supernatant was discarded. Then, the cells were resuspended in 50 μL cold staining buffer (unstained) or 50 μL cold staining buffer containing the phenotyping antibodies against CD3, CD4, CD8 and the LIVE/DEAD™ Fixable Near-IR Dead Cell Stain (unstimulated and stimulated) and incubated at 4° C. for 30 min. After the surface staining, the cells were washed twice with 200 μL staining buffer and centrifugation at 1400 rpm, followed by fixation with 1% paraformaldehyde (PFA) solution for 15 min at 4° C. All following centrifugation steps were carried out at 1400 rpm for 5 min. After fixation, the cells were again washed twice with 200 μL cold staining buffer and were then resuspended in 100 μL 1× perm/wash buffer diluted in PBS (provided is 10×) for 15 min at 4° C. for cell membrane permeabilization. Subsequently, the plate was centrifuged and the supernatant was discarded. The cells were resuspended in 50 μL perm/wash buffer diluted in PBS (unstained) or 50 μL perm/wash buffer containing the intracellular cytokine antibodies against IFNγ, TNFα and granzyme B (unstimulated and stimulated) for 30 min at 4° C. After intracellular cytokine staining, the cells were washed twice with 200 μL 1× perm/wash buffer. Then 100 μL fix/perm solution (provided in the BD Cytofix/Cytoperm kit) were added per well. After 20 min of incubation at 4° C., the cells of each well were washed twice with 200 μL 1× perm/wash buffer before being resuspended in 100 μL staining buffer and stored at 4° C. overnight.
OneComp eBeads™ (eBeads) and ArC™ Amine Reactive Compensation beads (ArC beads) were stained as compensation controls. For each antibody, 50 μL of the eBeads suspension were stained with the same dilution as used for staining the cells. The ArC beads were stained with 1 μL LIVE/DEAD™ Fixable Near-IR Dead Cell Stain stock solution in 50 μL staining buffer. The beads were incubated at 4° C. for 30 min and were then washed two times with 1 mL staining buffer and centrifugation at 400×g. Finally, the stained beads were resuspended in 400 μL staining buffer, one drop of ArC™ negative beads was added to the labelled ArC beads, and all beads were stored at 4° C. overnight.
On the next day, the samples and the single stained compensation controls were acquired at a BD FACS Canto™ II analyzer using the BD FACS Diva Software Version 6. […]

Substance	cytokine: Immunogenicity of the peptide shown by intracellular cytokine staining (IFN-gamma, TNF-alpha)
5 (EYRYYCYSLY; Human papillomavirus 16) [compound 5]	+
6 (DLQPETTDLY; Human papillomavirus 16) [compound 6]	+
4 (YGVCDKCLKFY; Human papillomavirus 16) [compound 4]	+

Same assay, conditions: HLA restriction A02

Substance	cytokine: Immunogenicity of the peptide shown by intracellular cytokine staining (IFN-gamma, TNF-alpha)
43 (LLMGTLGIVC; Human papillomavirus 16) [compound 43]	+

Same assay, conditions: HLA restriction A03

Substance	cytokine: Immunogenicity of the peptide shown by intracellular cytokine staining (IFN-gamma, TNF-alpha)
63 (AVCDKCLKFY; Human papillomavirus 16) [compound 63]	+
66 (GIVCPICSQK; Human papillomavirus 16) [compound 66]	+

Same assay, conditions: HLA restriction A11

Substance	cytokine: Immunogenicity of the peptide shown by intracellular cytokine staining (IFN-gamma, TNF-alpha)
63 (AVCDKCLKFY; Human papillomavirus 16) [compound 63]	+

Same assay, conditions: HLA restriction A24

Substance	cytokine: Immunogenicity of the peptide shown by intracellular cytokine staining (IFN-gamma, TNF-alpha)
92 (HYCYSLYGTTL; Human papillomavirus 16) [compound 92]	+
88 (DRAHYNIVTF; Human papillomavirus 16) [compound 88]	+
87 (PDRAHYNIVTF; Human papillomavirus 16) [compound 87]	+

Same assay, conditions: HLA restriction B07

Substance	cytokine: Immunogenicity of the peptide shown by intracellular cytokine staining (IFN-gamma, TNF-alpha)
141 (RPRKLPDLCT; Human papillomavirus 16) [compound 141]	+
99 (RPRKLPQLCTE; Human papillomavirus 16) [compound 99]	+

Same assay, conditions: HLA restriction B15

Substance	cytokine: Immunogenicity of the peptide shown by intracellular cytokine staining (IFN-gamma, TNF-alpha)
63 (AVCDKCLKFY; Human papillomavirus 16) [compound 63]	+
110 (GQAEPDRAHY; Human papillomavirus 16) [compound 110]	+

The substances below were run on short-term antigen-specific T cell lines generated from PBMCs (assay: Interferon-γ ELISpot assay on short-term antigen-specific T cell lines). Conditions: HLA restriction A01.
Format: cell-based, human

Substance	ELISpot: Immungenicity of the peptide shown by IFN-gamma ELISPOT analysis
5 (EYRYYCYSLY; Human papillomavirus 16) [compound 5]	+
6 (DLQPETTDLY; Human papillomavirus 16) [compound 6]	+
4 (YGVCDKCLKFY; Human papillomavirus 16) [compound 4]	+
133 (SEYRHYCY; Human papillomavirus 16) [compound 133]	+
134 (IHEIILECVY; Human papillomavirus 16) [compound 134]	+

Same assay, conditions: HLA restriction A02

Substance	ELISpot: Immungenicity of the peptide shown by IFN-gamma ELISPOT analysis
43 (LLMGTLGIVC; Human papillomavirus 16) [compound 43]	+
48 (ELQTTIHDI; Human papillomavirus 16) [compound 48]	+

Same assay, conditions: HLA restriction A03

Substance	ELISpot: Immungenicity of the peptide shown by IFN-gamma ELISPOT analysis
63 (AVCDKCLKFY; Human papillomavirus 16) [compound 63]	+
66 (GIVCPICSQK; Human papillomavirus 16) [compound 66]	+
136 (GTTLEQQYNK; Human papillomavirus 16) [compound 136]	+
70 (KCLKFYSKI; Human papillomavirus 16) [compound 70]	+
53 (CVYCKQQLLR; Human papillomavirus 16) [compound 53]	+
71 (KFYSKISEY; Human papillomavirus 16) [compound 71]	+

Same assay, conditions: HLA restriction A11

Substance	ELISpot: Immungenicity of the peptide shown by IFN-gamma ELISPOT analysis
68 (YAVCDKCLKFY; Human papillomavirus 16) [compound 68]	+
79 (LGIVCPICSQK; Human papillomavirus 16) [compound 79]	+

Same assay, conditions: HLA restriction A24

Substance	ELISpot: Immungenicity of the peptide shown by IFN-gamma ELISPOT analysis
92 (HYCYSLYGTTL; Human papillomavirus 16) [compound 92]	+
88 (DRAHYNIVTF; Human papillomavirus 16) [compound 88]	+
87 (PDRAHYNIVTF; Human papillomavirus 16) [compound 87]	+
96 (AHYNIVTF; Human papillomavirus 16) [compound 96]	+
138 (HYNIVTFC; Human papillomavirus 16) [compound 138]	+
95 (DKKQRFHN; Human papillomavirus 16) [compound 95]	+
71 (KFYSKISEY; Human papillomavirus 16) [compound 71]	+

Same assay, conditions: HLA restriction B07

Substance	ELISpot: Immungenicity of the peptide shown by IFN-gamma ELISPOT analysis
141 (RPRKLPDLCT; Human papillomavirus 16) [compound 141]	+
99 (RPRKLPQLCTE; Human papillomavirus 16) [compound 99]	+
142 (CPDEKQRHL; Human papillomavirus 16) [compound 142]	+
143 (LPQLCTELQT; Human papillomavirus 16) [compound 143]	+

Same assay, conditions: HLA restriction B15

Substance	ELISpot: Immungenicity of the peptide shown by IFN-gamma ELISPOT analysis
63 (AVCDKCLKFY; Human papillomavirus 16) [compound 63]	+
110 (GQAEPDRAHY; Human papillomavirus 16) [compound 110]	+
12 (TLHEYMLDL; Human papillomavirus 16) [compound 12]	+
130 (KQRFHNIRGRW; Human papillomavirus 16) [compound 130]	+
119 (LRREVYDFAF; Human papillomavirus 16) [compound 119]	+
123 (FYSKISEY; Human papillomavirus 16) [compound 123]	+
81 (RAHYNIVTF; Human papillomavirus 16) [compound 81]	+
131 (GQAEPDRAH; Human papillomavirus 16) [compound 131]	+
126 (SEYRHYCY; Human papillomavirus 16) [compound 126]	+

Same assay, conditions: comparison among the peptides in Table 1

Substance	rates of immunoactivation in PBMC samples, CD8 T cell responses and/or numbers of HPV16 positive cell lines presenting the peptide as HLA-complexes
1 (ISEYRHYCY; Human papillomavirus 16) [compound 1]	highest rates of immunoactivation in PBMC samples, to induce the strongest CD8 T cell responses, and/or shown to be presented as HLA-complexes by the highest numbers of HPV16 positive cell lines
11 (TIHDIILECV; Human papillomavirus 16) [compound 11]	highest rates of immunoactivation in PBMC samples, to induce the strongest CD8 T cell responses, and/or shown to be presented as HLA-complexes by the highest numbers of HPV16 positive cell lines
81 (RAHYNIVTF; Human papillomavirus 16) [compound 81]	highest rates of immunoactivation in PBMC samples, to induce the strongest CD8 T cell responses, and/or shown to be presented as HLA-complexes by the highest numbers of HPV16 positive cell lines
53 (CVYCKQQLLR; Human papillomavirus 16) [compound 53]	highest rates of immunoactivation in PBMC samples, to induce the strongest CD8 T cell responses, and/or shown to be presented as HLA-complexes by the highest numbers of HPV16 positive cell lines
